Laboratory results as given in patent publication US20050148553A1, “Use of tigecycline, alone, or in combination with rifampin to treat osteomyelitis and/or septic arthritis” (priority 2003, published 2005).

Test: Whole body autoradiography after 30-minute 3 mg/kg IV infusion of [^14C]-tigecycline
Assay type: in vivo, Sprague-Dawley rats
Protocol: Male Sprague-Dawley and Long-Evans rats were obtained from Charles River Breeding Laboratories, Raleigh, N.C., and were quarantined for at least one week prior to the start of the study. […] The dosing solution was diluted and radioassayed directly in Ultima Gold scintillation counting cocktail (Packard Inc.). […] All pumps were calibrated prior to the administration of the compound. Rats were anesthetized with isoflurane prior to cardiac puncture exsanguination at the prescribed times after dosing. […] Control whole blood was collected from male Sprague-Dawley rats into tubes containing sodium heparin. Pooled blood was used to prepare the calibration standards and quality control samples. The standards were used to construct the standard curve for the quantification of radiolabeled drug distribution in tissues of whole blood cryosections. The quality controls, which were embedded in the same CMC block with each rat, were used for assessing intra- and inter-section variation in the thickness of rat whole-body cryosections. […] Immediately following euthanasia, each rat was totally immersed in a bath of hexane and dry ice (−75° C.) until frozen. Each carcass was dried and stored at −30° C. until embedded. […] Each frozen rat was sagitally sectioned at −20° C. A sufficient number of sections were collected to ensure sampling of all tissues of interest. The sections were dehydrated overnight in a cryochamber and then rapidly transferred to a dessicator containing CaSO4 to prevent condensation of atmospheric moisture while equilibrating to room temperature. The sections were mounted on cardboard and labeled with [^14C]-labeled black ink with a unique identification number. […] A small piece of Scotch tape was placed over the dried radioactive ink to prevent the contamination of the storage phosphor screens. Phosphor imaging plates, BAS-SR 2025 (Fuji Photo Film Co., Japan) were exposed to bright visible light for 20 minutes using an IP eraser (Raytest, USA Inc., New Castle, Del.) to remove background radiation. Sections and calibration blood standards were concurrently placed in direct contact with Ips and exposed for 7 days. All sections were stored at room temperature in a lead shielding box to minimize background levels. Phosphor images were generated using a Fujifilm BAS-5000 Bio-Imaging Analyzer and quantitated by MCID M2 Software, version 3.2 (Imaging Research Inc., St. Catherines, Ontario, Canada). The STDs and QCs were analyzed using the circular sampling tool in the MCID software program. Areas of interest in whole-body sections were manually outlined with the regional sampling tool to generate count data. Radioactive concentrations in select tissues were determined by digital analysis of the resulting autoradiograms on the basis of a calibration curve. […] The linear regression curve was then used to determine the concentration of unknown radioactivity of study samples. […] Blood samples were combusted using a Model 307 sample oxidizer (Packard Instrument Company). […] Research Triangle Park, N.C.), which applies a model-independent approach and standard procedures as described in Gibaldi and Perrier. Gibaldi, Pharmacokinetics, 1982. […] For IV infusion dosing, C30 min was the concentration at 30 minutes, the first sampling time point. The maximum plasma concentration (Cmax) and the corresponding time of peak concentration following IV administration were obtained directly by numerical inspection from the individual concentration-time data. The terminal half-life was calculated by the ratio of ln2/λz where λz is derived from the terminal slope of the concentration time curve. The area under the plasma concentration versus time curve from zero to infinity was calculated using the trapezoidal rule, where Clast is the last measurable plasma concentration. […]

## CN(C)c1cc(NC(=O)CNC(C)(C)C)c(O)c2c1C[C@H]1C[C@H]3[C@H](N(C)C)C(O)=C(C(N)=O)C(=O)[C@@]3(O)C(O)=C1C2=O [[^14C]-Tigecycline]
Adrenal Gland
  AUC: 29515 Ng eq hr/g
Adrenal Gland, 0.5 Hrs
  Mean concentration of total radioactivity: 3580 ng equiv./g
  Tissue:Plasma Ratio: 4.00
Adrenal Gland, 8.5 Hrs
  Mean concentration of total radioactivity: 941 ng equiv./g
  Tissue:Plasma Ratio: 1.87
Adrenal Gland, 24 Hrs
  Mean concentration of total radioactivity: 68.9 ng equiv./g
  Tissue:Plasma Ratio: 4.67
Adrenal Gland, 72 Hrs
  Mean concentration of total radioactivity: 19.3 ng equiv./g
  Tissue:Plasma Ratio: 4.47
Adrenal Gland, 168 Hrs
  Mean concentration of total radioactivity: <5.10 ng equiv./g
Adrenal Gland, 336 Hrs
  Mean concentration of total radioactivity: <5.10 ng equiv./g
Adrenal Gland, first AUC column
  AUC: 29153 Ng eq hr/g
Blood
  AUC: 1261 Ng eq hr/g
Blood, 0.5 Hrs
  Tissue:Plasma Ratio: 1.43
Blood, 8.5 Hrs
  Tissue:Plasma Ratio: 1.24
Blood, 24 Hrs
  Tissue:Plasma Ratio: 3.01
Blood, 72 Hrs
  Tissue:Plasma Ratio: 2.74
Blood, first AUC column
  AUC: 12063 Ng eq hr/g
Bone
  AUC: 794704 Ng eq hr/g
Bone Marrow
  AUC: 47468 Ng eq hr/g
Bone Marrow, 0.5 Hrs
  Mean concentration of total radioactivity: 4376 ng equiv./g
  Tissue:Plasma Ratio: 4.89
Bone Marrow, 8.5 Hrs
  Mean concentration of total radioactivity: 1562 ng equiv./g
  Tissue:Plasma Ratio: 3.10
Bone Marrow, 24 Hrs
  Mean concentration of total radioactivity: 291 ng equiv./g
  Tissue:Plasma Ratio: 19.7
Bone Marrow, 72 Hrs
  Mean concentration of total radioactivity: 22.5 ng equiv./g
  Tissue:Plasma Ratio: 5.21
Bone Marrow, 168 Hrs
  Mean concentration of total radioactivity: <5.10 ng equiv./g
Bone Marrow, 336 Hrs
  Mean concentration of total radioactivity: <5.10 ng equiv./g
Bone Marrow, first AUC column
  AUC: 47116 Ng eq hr/g
Bone, 0.5 Hrs
  Mean concentration of total radioactivity: 3312 ng equiv./g
  Tissue:Plasma Ratio: 3.70
Bone, 8.5 Hrs
  Mean concentration of total radioactivity: 3794 ng equiv./g
  Tissue:Plasma Ratio: 7.53
Bone, 24 Hrs
  Mean concentration of total radioactivity: 2711 ng equiv./g
  Tissue:Plasma Ratio: 184
Bone, 72 Hrs
  Mean concentration of total radioactivity: 1787 ng equiv./g
  Tissue:Plasma Ratio: 414
Bone, 168 Hrs
  Mean concentration of total radioactivity: 1526 ng equiv./g
Bone, 336 Hrs
  Mean concentration of total radioactivity: 720 ng equiv./g
Bone, first AUC column
  AUC: 569498 Ng eq hr/g
Brain
  AUC: 2865 Ng eq hr/g
  Cmax: 54 Ng equiv/g
Brain, 0.5 Hrs
  Mean concentration of total radioactivity: 35.8 ng equiv./g
  Tissue:Plasma Ratio: 0.040
Brain, 8.5 Hrs
  Mean concentration of total radioactivity: 54.3 ng equiv./g
  Tissue:Plasma Ratio: 0.108
Brain, 24 Hrs
  Mean concentration of total radioactivity: 35.8 ng equiv./g
  Tissue:Plasma Ratio: 2.42
Brain, 72 Hrs
  Mean concentration of total radioactivity: 13.3 ng equiv./g
  Tissue:Plasma Ratio: 3.10
Brain, 168 Hrs
  Mean concentration of total radioactivity: <5.10 ng equiv./g
Brain, 336 Hrs
  Mean concentration of total radioactivity: <5.10 ng equiv./g
Brain, first AUC column
  AUC: 2256 Ng eq hr/g
Eyes
  AUC: 3221 Ng eq hr/g
  Cmax: 108 Ng equiv/g
Eyes, 0.5 Hrs
  Mean concentration of total radioactivity: 106 ng equiv./g
  Tissue:Plasma Ratio: 0.118
Eyes, 8.5 Hrs
  Mean concentration of total radioactivity: 108 ng equiv./g
  Tissue:Plasma Ratio: 0.215
Eyes, 24 Hrs
  Mean concentration of total radioactivity: 36.6 ng equiv./g
  Tissue:Plasma Ratio: 2.46
Eyes, 72 Hrs
  Mean concentration of total radioactivity: 6.76 ng equiv./g
  Tissue:Plasma Ratio: 1.57
Eyes, 168 Hrs
  Mean concentration of total radioactivity: <5.10 ng equiv./g
Eyes, 336 Hrs
  Mean concentration of total radioactivity: <5.10 ng equiv./g
Eyes, first AUC column
  AUC: 3060 Ng eq hr/g
Fat
  AUC: 3500 Ng eq hr/g
Fat, 0.5 Hrs
  Mean concentration of total radioactivity: 450 ng equiv./g
  Tissue:Plasma Ratio: 0.50
Fat, 8.5 Hrs
  Mean concentration of total radioactivity: 144 ng equiv./g
  Tissue:Plasma Ratio: 0.287
Fat, 24 Hrs
  Mean concentration of total radioactivity: <5.1 ng equiv./g
Fat, 72 Hrs
  Mean concentration of total radioactivity: <5.10 ng equiv./g
Fat, 168 Hrs
  Mean concentration of total radioactivity: <5.10 ng equiv./g
Fat, 336 Hrs
  Mean concentration of total radioactivity: <5.10 ng equiv./g
Fat, first AUC column
  AUC: 2489 Ng eq hr/g
Heart
  AUC: 40179 Ng eq hr/g
Heart, 0.5 Hrs
  Mean concentration of total radioactivity: 5657 ng equiv./g
  Tissue:Plasma Ratio: 6.32
Heart, 8.5 Hrs
  Mean concentration of total radioactivity: 1138 ng equiv./g
  Tissue:Plasma Ratio: 2.26
Heart, 24 Hrs
  Mean concentration of total radioactivity: 69.9 ng equiv./g
  Tissue:Plasma Ratio: 4.74
Heart, 72 Hrs
  Mean concentration of total radioactivity: 6.98 ng equiv./g
  Tissue:Plasma Ratio: 1.62
Heart, 168 Hrs
  Mean concentration of total radioactivity: <5.10 ng equiv./g
Heart, 336 Hrs
  Mean concentration of total radioactivity: <5.10 ng equiv./g
Heart, first AUC column
  AUC: 40083 Ng eq hr/g
Kidney
  AUC: 70704 Ng eq hr/g
  Cmax: 7601 Ng equiv/g
Kidney, 0.5 Hrs
  Mean concentration of total radioactivity: 7601 ng equiv./g
  Tissue:Plasma Ratio: 8.49
Kidney, 8.5 Hrs
  Mean concentration of total radioactivity: 1725 ng equiv./g
  Tissue:Plasma Ratio: 3.42
Kidney, 24 Hrs
  Mean concentration of total radioactivity: 140 ng equiv./g
  Tissue:Plasma Ratio: 9.49
Kidney, 72 Hrs
  Mean concentration of total radioactivity: 47.9 ng equiv./g
  Tissue:Plasma Ratio: 11.1
Kidney, 168 Hrs
  Mean concentration of total radioactivity: 41.3 ng equiv./g
Kidney, 336 Hrs
  Mean concentration of total radioactivity: 13.9 ng equiv./g
Kidney, first AUC column
  AUC: 68333 Ng eq hr/g
Liver
  AUC: 53527 Ng eq hr/g
  Cmax: 7300 Ng equiv/g
Liver, 0.5 Hrs
  Mean concentration of total radioactivity: 7300 ng equiv./g
  Tissue:Plasma Ratio: 8.16
Liver, 8.5 Hrs
  Mean concentration of total radioactivity: 1192 ng equiv./g
  Tissue:Plasma Ratio: 2.37
